Measurements published in patent US6916471B2, “Red blood cells loaded with S-nitrosothiol and uses therefor” (Duke University, priority 1995, dated 2005).

Key:
Sprague-Dawley rats = experiment: Local cerebral blood flow by H2-sensitive microelectrodes; type: in vivo, rat; settings: for local cerebral blood flow: 1 μmol/kg infused over 3 minutes
Description: Adult male Sprague-Dawley rats (290-350 g) were anesthetized with sodium pentobarbital (50 mg/kg IP), intubated and ventilated with a small animal respirator (Edco Scientific Inc., Chapel Hill, N.C.) at a rate and tidal volume to maintain normal values of PaCO2 (35-45 mm Hg; PaCO2=systemic arterial blood carbon dioxide tension). The femoral vein and artery were cannulated for infusion of drugs and for continuous monitoring of systemic blood pressure, respectively. Aliquots of arterial blood (200 μl) were drawn periodically to measure blood gas tensions and pH (Instrumentation Laboratory Co., model 1304 blood gas/pH analyzer). The blood was replaced intravenously with three volumes of normal saline. The inspired O2 concentration was varied using premixed gases balanced with nitrogen. The tissue PO2 was measured continuously with polarographic platinum microelectrodes (50 μm O.D. coated with hydrophobic gas permeable Nafion) implanted stereotaxically in both the right and left hippocampus (AP−3.4 mm, ML+2.2 mm), caudate putamen nucleus and substantia nigra (see coordinates below) (Young, W., Stroke, 11:552-564 (1980); Heiss, W. D. and Traupett, H., Stroke, 12:161-167 (1981); Dewhirst, M. W. et al., Cancer Res., 54:3333-3336 (1994); Kerger, H. et al., Am. J. Physiol., 268:H802-H810 (1995)). The PO2 electrodes were polarized to −0.65V against a distant Ag/AgCl reference located on the tail and the current flow was measured using a low-impedance nA-meter. Regional arterial PO2 was adjusted by changing the inspired O2 concentration and atmospheric pressure.
Polarographic hydrogen (H2)-sensitive microelectrodes were implanted stereotaxically in the substantia nigra (AP −5.3 mm, ML −2.4 mm to the bregma, depth 3.2 mm), caudate putamen nucleus (CPN) (AP +0.8 mm, ML −2.5 mm, depth 5.2 mm) and parietal cortex, for measurement of regional blood flow (Young, W., Stroke, 11:552-564 (1980); Heiss, W. D. and Traupett, H., Stroke, 12:161-167 (1981)). The microelectrodes were made from platinum wire and insulated with epoxy, with the exception of the tip (1 mm) which was coated with Nafion. For placement, the electrodes were mounted on a micromanipulator and the rat's head was immobilized in a Kopf stereotaxic frame. H2-sensitive electrodes were polarized to +400 mV against a distant reference electrode on the tail, and the polarographic current was measured using a low-impedance nA meter during and after the inhalation of hydrogen gas (2.5%) for 1 min. Both the hydrogen clearance curves and voltage for oxygen measurements were made using PC WINDAQ (software, DI-200 AC, Dataq Instruments, Inc., Akron, Ohio). Cerebral blood flow was calculated using the initial slope method (Young, W., Stroke, 11:552-564 (1980); Heiss, W. D. and Traupett, H., Stroke, 12:161-167 (1981)). Regional blood flow responses were monitored for 30 min. prior to and 30 min. following drug administration; hemoglobins were given at time 0.
The cerebrovascular effects of SNO-Hb were measured in adult male Sprague-Dawley rats using O2 and H2 (blood flow)-sensitive microelectrodes that were placed stereotaxically in several regions of the brain as for Example 11.
Comparative effects of SNO-Hb (●) and Hb (▪) (1 μmol/kg infused over 3 minutes) on local blood flow in substantia nigra (SN), caudate putamen nucleus, and parietal cortex are shown for three different conditions. […] Baseline blood flow was decreased by ˜10% under 100% O2+3 ATA as compared to 100% O2. n=7 for all data points. Values of tissue/microvascular PO2 ranged from 19-37 mm Hg in 21% O2; from 68-138 mm Hg in 100% O2; and from 365-538 mm Hg in 100%+3 ATA (Duke University Medical Center Hyperbaric Chambers).

Rats = experiment: Hemodynamics (blood pressure) at different O2 concentrations; type: in vivo, rat; settings: 1 μmol/kg infused over 1 minute; 10 min. post-infusion
Description: Rats were anesthetized by intraperitoneal injection of pentobarbital, and the femoral arteries and veins accessed by local cutdown. The artery was then cannulated and the blood pressure monitored continuously using a P23 XL pressure transducer (Viggo Spectramed, Oxnard, Calif.) attached to a Gould recorder. The femoral vein was used for infusion of drugs and red blood cells containing SNO-Hb (1 ml over 1 min.) and an IBM PC (WINDAQ 200, Dataq Instruments, Inc.; Akron, Ohio) was used for data acquisition.
Drugs were infused through the femoral vein at 1 μmol/kg infused over 1 minute after blood pressure had stabilized (approximately 30 min). Measurements shown (FIG. 11A) were taken at 10 min. post-infusion of drug. […] P<0.05 vs. SNO-Hb; *P<0.05, **P<0.01) vs. baseline blood pressure. n=5-6 for each drug.
The hypotensive effects of SNO-RBCs were potentiated by pre-administration of the NO synthase inhibitor N^G-monomethyl-L-arginine (L-NMMA; 50 mg/kg). n=8 for each data point. Curves different by ANOVA (P<0.01), *P<0.05 vs. L-NMMA. The amount of hemolysis in these experiments was trivial. Infusion of the hemolysate had no effect on blood pressure.

[1] = tested on: rabbit thoracic aorta rings; experiment: Oxygen-dependent rabbit aortic ring bioassay of Hb, SNO-Hb, GSNO and SNO-RBCs
rat red blood cells = experiment: S-nitrosylation of intraerythrocytic Hb (loading of red blood cells); type: cell-based; settings: oxygenated rat red blood cells
Description: Given that Hb is largely contained within red blood cells, potential mechanisms by which S-nitrosylation of intracellular protein might occur were explored. […] Rapid oxidation of Hb was not observed under these conditions. […] Thus, erythrocyte access of RSNOs is thiol group specific.
Incubation of rat erythrocytes with S-nitrosocysteine (equimolar to heme (5 mM); phosphate buffer pH 7.4, 25° C.) leads to rapid formation of intracellular SNO-Hb(FeII)O2. […] By 60 min, 3 of the 4 available SH groups of Hb are S-nitrosylated (note that rat Hb contains 4 reactive SH groups). […] Spectrum A is that of SNO-Hb isolated from erythrocytes following G-25 chromatography. Treatment of A with dithionite results in reduction of the S—NO moiety, liberating free NO which is autocaptured by deoxy Hb, forming Hb(FeII)NO (note that dithionite simultaneously deoxygenates Hb) (spectrum C). […] The spectrum of Hb(FeII)NO containing 4 NO's per tetramer is shown for comparison (inset, spectrum B).
At shown intervals, red blood cells were pelleted rapidly by centrifugation, washed three times, lysed in deionized water at 4° C., and the cytosolic fraction subjected to rapid desalting across G-25 columns. Intracellular SNO-Hb was measured by the method of Saville (Gaston, B., et al., (1992); Stamler, J. S., et al., Proc. Natl. Acad. Sci. USA, 89:444-448 (1992)), and confirmed spectroscopically (inset of FIG. 3A) as described above.

[2] = SNO-Hb decomposition and transnitrosation with glutathione; type: biochemical
Description: The decomposition of SNO-Hb(FeII) is further accelerated by the presence of excess glutathione. Within the dead time of our measurements (˜15 sec) a major fraction of SNO-Hb(FeII) was converted to GSNO.
Hbs in PBS (0.5 mM EDTA, pH 7.4) were incubated in air (oxy) or in a tonometer previously evacuated of O2 (deoxy). SNO-Hb(FeII)O2 decomposition was determined by the method of Saville (Saville, B., Analyst, 83:670-672 (1958)). Spontaneous decomposition of SNO-Hb(FeII) was followed spectrophotometrically by formation of Hb(FeII)NO. […] Rates of NO group transfer were too rapid to measure accurately by the standard methods used in this study.
Data are presented as the amount of GSNO formed relative to the starting SNO-Hb concentration.
Thiol/SNO-Hb exchange, forming GSNO, was verified chemically (Stamler, J. S., et al., Proc. Natl Acad. Sci. USA 89:444-448 (1992)) following trichloroacetic acid precipitation (n=5).

vascular ring = experiment: Vessel ring bioassay of SNO-Hb preparations, with or without glutathione
From the text: Arterial red blood cells contain two physiologically important forms of hemoglobin: Hb(FeII)O2 and Hb(FeIII) (Antonini et al. (1971)). […] Such findings raise the possibility of functional consequences, perhaps influenced by the redox state of heme and its occupation by ligand.
Details of the vessel ring bioassay have been published (Stamler, J. S., et al., Proc. Natl. Acad. Sci. USA 89:444-448 (1992)). SNO-Hb(FeII)O2 preparations were synthesized with 10-fold excess S-nitrosocysteine (CYSNO) over Hb(FeII)O2 protein (2% borate, 0.5 mM EDTA, ˜15 min incubation), after which desalting was performed across Sephadex G-25 columns. CYSNO was synthesized in 0.5 N HCl, 0.5 mM EDTA and then neutralized (1:1) in 1 M phosphate buffer containing 0.5 mM EDTA. […] The latter was synthesized by treatment of Hb(FeII)O2 with excess ferricyanide, followed by desalting across G-25 columns. SNO-Hb concentrations were verified spectroscopically and the S-nitrosothiol content was determined by the method of Saville (Stamler, J. S., et al., Proc. Nat. Acad. Sci. USA 89:444-448 (1992)). The S-NO/tetramer stoichiometry for both SNO-Hb preparations was ˜2. Oxidation of the heme was undetectable by uv-spectrophotometric methods.

Sprague-Dawley rat = experiment: Mean arterial pressure after femoral vein bolus of cell-free Hb and SNO-Hbs; type: in vivo
From the text: Systemic administration of cell-free Hb results in hypertensive responses which have been attributed to NO scavenging by the heme (Vogel, W. M., et al., Am. J. Physiol. 251:H413-H420 (1986); Olsen, S. B., et al., Circulation 93:329-332 (1996)). To determine if SNO-Hb is free of this adverse affect, and to explore if in vitro mechanisms of NO release extend to the in vivo circumstance, we compared responses to Hb and SNO-Hb infused as a bolus into the femoral vein of anesthetized rats. […] Thus, the profiles of these compounds in vivo closely resemble those seen in vitro (FIG. 4A). […] These changes in mean blood pressure of ˜10% are on the order of those that differentiate normotension from hypertension in man, and in the therapeutic range of some antihypertensive regimens. […] The bioactivity of SNO-Hb in blood, where S—NO/heme stoichiometries approach 1:50,000, is a dramatic illustration of the resistence of this NO-related activity to Hb(Fe) inactivation.
Administration of 2-200 nmol/kg Hb(FeII)O2 (as a bolus) into the femoral vein of a Sprague-Dawley rat is shown to increase mean arterial pressure in a dose-dependent manner. At 200 nmol/kg, mean arterial pressure increased by 25 mm Hg (20±3 mm Hg; n=4; P<0.05). Elevations in blood pressure reversed within 10-15 min. SNO-Hb(FeII)O2 infusions (over the same dose range) are shown to ameliorate Hb(FeII)O2-induced hypertension without causing overt changes in blood pressure. […] A fall in blood pressure was also seen with injection of erythrocytes containing SNO-Hb.
Rats were anesthetized by intraperitoneal injection of pentobarbital and the femoral arteries and veins accessed by local cut down. The artery was then cannulated and the blood pressure monitored continuously using a Viggo Spectramed pressure transducer attached to a Gould recorder. An IBM PC (DATA Q Codas) was used for data acquisition.

## N[C@@H](CCC(=O)N[C@@H](CSN=O)C(=O)NCC(=O)O)C(=O)O [S-nitrosoglutathione]
Sprague-Dawley rats; 100% O2 and 100% O2+3 ATA
  brain perfusion: increased brain perfusion
Rats
  change in blood pressure: decreased blood pressure
[1]; 95%, 21%, <1% O2
  O2 dependence of vasorelaxant effects: largely independent of PO2
Rat red blood cells
  formation of intraerythrocytic SNO-Hb: not

## S-nitrosohemoglobin [SNO-Hb]
Sprague-Dawley rats; 21% O2
  local cerebral blood flow: improved blood flow in all three regions of the brain tested
Sprague-Dawley rats; 100% O2
  local cerebral blood flow: significantly attenuated
Sprague-Dawley rats; 100% O2+3 ATA
  local cerebral blood flow: tended to decrease cerebral flow to similar extents
Rats
  change in blood pressure: significantly less of an increase in blood pressure than Hb
[1]; 1 μM, 6-7 torr
  effect on tone of rings contracted with phenylephrine under hypoxia: caused relaxations
[1]; 10 μM glutathione, greatest at <1% O2
  effect of glutathione on vasorelaxant response: potentiates the vasorelaxant response
[1]; 95% O2
  concentration-effect responses in R-structure: virtually identical to those of native Hb

## SNO-Hb(FeII): S-nitrosohemoglobin in the deoxy state
[2]; deoxy versus oxy state, PBS pH 7.4
  rate of RSNO decomposition (and transfer): much faster in the deoxy conformation
[1]; <1% O2 (˜6 torr)
  effect on vessel tone in T-structure: modest effect on baseline tone

## SNO-Hb(FeIII): S-nitrosohemoglobin with heme oxidized to FeIII
Vascular ring; glutathione 100 μM in bioassay chambers
  effect of added glutathione on the dose-response: potentiates the dose-response
Vascular ring; no glutathione
  activity in vascular ring bioassay: vasodilator
[2]; SNO-Hb 100 μM, glutathione 10 mM, versus SNO-Hb(FeII)O2
  rate of NO group transfer to glutathione: more rapid
Sprague-Dawley rat; after 200 nmol/kg (highest dose)
  mean arterial pressure, post: 74±6 mm Hg
Sprague-Dawley rat; after hypotensive response
  time for blood pressure to normalize: 10 min
Sprague-Dawley rat; before 200 nmol/kg
  mean arterial pressure, pre: 108±4 mm Hg
Sprague-Dawley rat; bolus, femoral vein, anesthetized rat
  blood pressure response: elicited hypotensive responses
